{"source": "patent US11767310B2", "about": "“Nicotinamide RIPK1 inhibitors” (AbbVie Inc., priority 2021, dated 2023)", "key": {"MAPKAPK2": {"biological_target": "MAPKAPK2 (Homo sapiens (Human), UniProt P49137)", "test": "Kinase binding screen", "conditions": "read-out: Percent Control at 100 nM Compound Concentration"}, "PIP5K1C": {"biological_target": "PIP5K1C (Homo sapiens (Human), UniProt O60331)", "sequence (O60331 whole entry)": "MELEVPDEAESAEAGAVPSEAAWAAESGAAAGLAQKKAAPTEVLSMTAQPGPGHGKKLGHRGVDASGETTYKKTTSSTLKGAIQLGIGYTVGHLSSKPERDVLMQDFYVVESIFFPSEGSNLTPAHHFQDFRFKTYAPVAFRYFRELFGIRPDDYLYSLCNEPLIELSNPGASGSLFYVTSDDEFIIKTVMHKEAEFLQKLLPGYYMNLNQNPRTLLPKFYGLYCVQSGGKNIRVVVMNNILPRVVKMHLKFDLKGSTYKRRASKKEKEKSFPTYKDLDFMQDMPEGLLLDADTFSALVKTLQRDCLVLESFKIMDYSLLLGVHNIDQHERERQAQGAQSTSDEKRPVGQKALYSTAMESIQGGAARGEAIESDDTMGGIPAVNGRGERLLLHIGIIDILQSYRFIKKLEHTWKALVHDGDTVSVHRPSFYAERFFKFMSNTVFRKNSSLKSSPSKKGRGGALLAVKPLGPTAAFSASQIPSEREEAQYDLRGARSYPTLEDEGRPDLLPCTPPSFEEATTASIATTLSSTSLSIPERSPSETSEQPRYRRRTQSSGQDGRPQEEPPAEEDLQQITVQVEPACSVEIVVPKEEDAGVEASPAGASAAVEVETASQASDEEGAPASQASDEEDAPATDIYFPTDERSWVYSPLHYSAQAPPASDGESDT", "test": "Kinase binding screen", "conditions": "read-out: Percent Control at 100 nM Compound Concentration"}, "NEK10": {"biological_target": "NEK10 (Homo sapiens (Human), UniProt Q6ZWH5)", "test": "Kinase binding screen", "conditions": "read-out: Percent Control at 100 nM Compound Concentration"}, "YANK1": {"biological_target": "YANK1 (Homo sapiens (Human), UniProt Q8WU08)", "test": "Kinase binding screen", "conditions": "read-out: Percent Control at 100 nM Compound Concentration"}, "TSSK3": {"biological_target": "TSSK3 (Homo sapiens (Human), UniProt Q96PN8)", "test": "Kinase binding screen", "conditions": "read-out: Percent Control at 100 nM Compound Concentration"}, "EGFR(T790M)": {"biological_target": "EGFR(T790M) (Homo sapiens (Human), UniProt P00533, T790M)", "test": "Kinase binding screen", "conditions": "read-out: Percent Control at 100 nM Compound Concentration"}, "PIKFYVE": {"biological_target": "PIKFYVE (Homo sapiens (Human), UniProt Q9Y2I7)", "test": "Kinase binding screen", "conditions": "read-out: Percent Control at 100 nM Compound Concentration"}, "AURKB": {"biological_target": "AURKB (Homo sapiens (Human), UniProt Q96GD4)", "test": "Kinase binding screen", "conditions": "read-out: Percent Control at 100 nM Compound Concentration"}, "FGFR3": {"biological_target": "FGFR3 (Homo sapiens (Human), UniProt P22607)", "test": "Kinase binding screen", "conditions": "read-out: Percent Control at 100 nM Compound Concentration"}, "[1]": {"biological_target": "EGFR(L747-S752del, P753S) (Homo sapiens (Human), UniProt P00533, DEL747-752/P753S)", "test": "Kinase binding screen", "conditions": "read-out: Percent Control at 100 nM Compound Concentration"}, "MEK2": {"biological_target": "MEK2 (Homo sapiens (Human), UniProt P36507)", "sequence (P36507 whole entry)": "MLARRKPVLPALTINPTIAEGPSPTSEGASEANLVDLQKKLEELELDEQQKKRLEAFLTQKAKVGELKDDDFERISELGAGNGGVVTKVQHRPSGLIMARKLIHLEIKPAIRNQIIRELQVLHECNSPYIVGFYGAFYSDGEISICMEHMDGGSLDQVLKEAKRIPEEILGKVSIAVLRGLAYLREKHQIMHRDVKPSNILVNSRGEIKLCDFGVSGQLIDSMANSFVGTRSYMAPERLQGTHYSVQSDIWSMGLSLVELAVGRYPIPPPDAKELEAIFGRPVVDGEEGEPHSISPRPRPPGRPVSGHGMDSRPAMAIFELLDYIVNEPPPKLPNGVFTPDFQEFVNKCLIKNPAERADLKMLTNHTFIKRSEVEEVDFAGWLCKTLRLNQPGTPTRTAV", "test": "Kinase binding screen", "conditions": "read-out: Percent Control at 100 nM Compound Concentration"}, "PRKCI": {"biological_target": "PRKCI (Homo sapiens (Human), UniProt P41743)", "test": "Kinase binding screen", "conditions": "read-out: Percent Control at 100 nM Compound Concentration"}, "p38-gamma": {"biological_target": "p38-gamma (Homo sapiens (Human), UniProt P53778)", "sequence (P53778 whole entry)": "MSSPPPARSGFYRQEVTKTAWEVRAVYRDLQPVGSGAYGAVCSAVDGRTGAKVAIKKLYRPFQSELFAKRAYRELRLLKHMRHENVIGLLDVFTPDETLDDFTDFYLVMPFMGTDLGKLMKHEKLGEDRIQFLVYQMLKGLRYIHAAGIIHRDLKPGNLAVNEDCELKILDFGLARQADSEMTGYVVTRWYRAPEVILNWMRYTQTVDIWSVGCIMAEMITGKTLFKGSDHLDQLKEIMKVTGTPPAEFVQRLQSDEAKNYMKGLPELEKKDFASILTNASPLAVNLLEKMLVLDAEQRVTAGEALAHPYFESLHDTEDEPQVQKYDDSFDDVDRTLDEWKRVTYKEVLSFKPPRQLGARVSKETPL", "test": "Kinase binding screen", "conditions": "read-out: Percent Control at 100 nM Compound Concentration"}, "LIMK1": {"biological_target": "LIMK1 (Homo sapiens (Human), UniProt P53667)", "sequence (P53667 whole entry)": "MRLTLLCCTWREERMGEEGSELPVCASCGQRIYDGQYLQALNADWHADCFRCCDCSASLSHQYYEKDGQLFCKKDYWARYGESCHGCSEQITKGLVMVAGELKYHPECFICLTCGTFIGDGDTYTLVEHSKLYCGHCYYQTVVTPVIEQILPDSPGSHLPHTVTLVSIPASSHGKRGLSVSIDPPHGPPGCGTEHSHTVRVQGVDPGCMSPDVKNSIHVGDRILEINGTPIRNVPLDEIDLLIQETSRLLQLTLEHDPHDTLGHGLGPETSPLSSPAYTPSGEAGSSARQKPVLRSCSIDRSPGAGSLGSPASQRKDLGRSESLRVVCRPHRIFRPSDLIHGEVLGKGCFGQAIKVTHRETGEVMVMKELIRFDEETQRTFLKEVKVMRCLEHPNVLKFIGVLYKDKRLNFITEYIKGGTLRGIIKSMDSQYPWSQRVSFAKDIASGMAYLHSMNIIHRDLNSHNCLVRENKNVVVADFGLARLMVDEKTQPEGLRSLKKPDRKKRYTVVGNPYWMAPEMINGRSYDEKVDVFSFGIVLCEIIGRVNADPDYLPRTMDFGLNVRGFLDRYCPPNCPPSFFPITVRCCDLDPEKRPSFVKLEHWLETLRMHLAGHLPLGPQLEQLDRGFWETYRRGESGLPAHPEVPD", "test": "Kinase binding screen", "conditions": "read-out: Percent Control at 100 nM Compound Concentration"}, "CTK": {"biological_target": "CTK (Homo sapiens (Human), UniProt P42679)", "sequence (P42679 whole entry)": "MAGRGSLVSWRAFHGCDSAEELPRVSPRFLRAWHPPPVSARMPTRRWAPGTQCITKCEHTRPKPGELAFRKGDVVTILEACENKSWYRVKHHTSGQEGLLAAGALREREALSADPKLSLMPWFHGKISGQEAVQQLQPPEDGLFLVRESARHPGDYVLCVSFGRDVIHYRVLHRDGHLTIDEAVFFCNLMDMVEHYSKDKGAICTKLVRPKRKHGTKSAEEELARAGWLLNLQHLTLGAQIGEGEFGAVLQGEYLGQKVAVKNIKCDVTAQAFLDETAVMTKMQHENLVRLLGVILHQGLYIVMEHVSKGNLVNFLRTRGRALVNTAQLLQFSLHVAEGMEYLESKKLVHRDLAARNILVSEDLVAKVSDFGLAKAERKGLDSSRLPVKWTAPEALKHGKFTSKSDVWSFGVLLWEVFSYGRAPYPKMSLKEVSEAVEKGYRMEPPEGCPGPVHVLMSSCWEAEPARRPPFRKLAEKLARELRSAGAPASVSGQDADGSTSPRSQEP", "test": "Kinase binding screen", "conditions": "read-out: Percent Control at 100 nM Compound Concentration"}, "PRKD2": {"biological_target": "PRKD2 (Homo sapiens (Human), UniProt Q9BZL6)", "test": "Kinase binding screen", "conditions": "read-out: Percent Control at 100 nM Compound Concentration"}, "AMPK-alpha1": {"biological_target": "AMPK-alpha1 (Homo sapiens (Human), UniProt Q13131)", "sequence (Q13131 whole entry)": "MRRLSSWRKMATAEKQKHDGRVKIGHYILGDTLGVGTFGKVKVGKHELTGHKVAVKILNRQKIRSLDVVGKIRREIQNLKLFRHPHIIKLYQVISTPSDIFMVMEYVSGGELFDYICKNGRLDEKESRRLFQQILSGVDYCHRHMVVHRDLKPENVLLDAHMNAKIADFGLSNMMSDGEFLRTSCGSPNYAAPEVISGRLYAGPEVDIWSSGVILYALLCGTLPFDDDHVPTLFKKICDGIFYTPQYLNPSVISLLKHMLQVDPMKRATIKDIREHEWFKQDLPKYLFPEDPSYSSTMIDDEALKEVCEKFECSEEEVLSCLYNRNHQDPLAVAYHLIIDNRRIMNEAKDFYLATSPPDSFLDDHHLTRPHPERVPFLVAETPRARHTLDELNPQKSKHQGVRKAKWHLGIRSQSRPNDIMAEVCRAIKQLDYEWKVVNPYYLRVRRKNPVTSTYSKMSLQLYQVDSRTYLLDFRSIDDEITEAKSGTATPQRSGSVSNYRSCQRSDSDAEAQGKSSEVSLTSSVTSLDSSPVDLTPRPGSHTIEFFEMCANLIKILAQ", "test": "Kinase binding screen", "conditions": "read-out: Percent Control at 100 nM Compound Concentration"}, "TRKC": {"biological_target": "TRKC (Homo sapiens (Human), UniProt Q16288)", "sequence (Q16288 32-839)": "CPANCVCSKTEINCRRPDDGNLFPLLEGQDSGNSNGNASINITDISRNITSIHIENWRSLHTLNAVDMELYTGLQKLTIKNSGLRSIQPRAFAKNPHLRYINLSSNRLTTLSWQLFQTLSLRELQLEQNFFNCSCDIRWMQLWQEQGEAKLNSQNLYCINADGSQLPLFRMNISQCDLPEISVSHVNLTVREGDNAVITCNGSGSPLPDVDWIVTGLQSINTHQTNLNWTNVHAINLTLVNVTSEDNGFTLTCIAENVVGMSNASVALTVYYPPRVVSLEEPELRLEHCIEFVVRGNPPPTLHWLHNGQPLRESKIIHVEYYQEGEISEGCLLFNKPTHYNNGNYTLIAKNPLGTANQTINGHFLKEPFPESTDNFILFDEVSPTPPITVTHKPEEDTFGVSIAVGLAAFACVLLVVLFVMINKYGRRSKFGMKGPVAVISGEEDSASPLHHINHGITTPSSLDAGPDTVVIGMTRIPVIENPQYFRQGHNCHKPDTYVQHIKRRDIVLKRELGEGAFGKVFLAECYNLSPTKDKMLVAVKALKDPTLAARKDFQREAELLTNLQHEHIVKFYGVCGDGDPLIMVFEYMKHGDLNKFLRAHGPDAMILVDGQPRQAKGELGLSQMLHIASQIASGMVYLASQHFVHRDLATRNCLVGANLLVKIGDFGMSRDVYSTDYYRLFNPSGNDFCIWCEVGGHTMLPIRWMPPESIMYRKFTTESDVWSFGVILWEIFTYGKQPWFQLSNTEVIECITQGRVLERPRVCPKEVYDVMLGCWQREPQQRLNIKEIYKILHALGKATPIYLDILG", "test": "Kinase binding screen", "conditions": "read-out: Percent Control at 100 nM Compound Concentration"}, "ADCK4": {"biological_target": "ADCK4 (Homo sapiens (Human), UniProt Q96D53)", "sequence (Q96D53 whole entry)": "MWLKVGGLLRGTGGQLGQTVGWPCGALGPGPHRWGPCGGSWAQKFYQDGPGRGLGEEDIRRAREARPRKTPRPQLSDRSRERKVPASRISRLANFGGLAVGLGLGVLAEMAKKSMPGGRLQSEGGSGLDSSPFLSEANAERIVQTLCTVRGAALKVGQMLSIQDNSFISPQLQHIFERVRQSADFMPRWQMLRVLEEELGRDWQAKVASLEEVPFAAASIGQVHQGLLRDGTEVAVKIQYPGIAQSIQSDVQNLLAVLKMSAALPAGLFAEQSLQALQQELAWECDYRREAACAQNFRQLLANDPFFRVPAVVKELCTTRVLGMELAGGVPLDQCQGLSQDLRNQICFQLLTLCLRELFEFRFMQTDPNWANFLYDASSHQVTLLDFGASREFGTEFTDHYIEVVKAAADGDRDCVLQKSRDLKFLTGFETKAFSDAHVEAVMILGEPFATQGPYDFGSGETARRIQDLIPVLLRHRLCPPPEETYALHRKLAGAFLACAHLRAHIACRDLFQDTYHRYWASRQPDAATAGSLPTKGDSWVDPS", "test": "Kinase binding screen", "conditions": "read-out: Percent Control at 100 nM Compound Concentration"}, "PKAC-beta": {"biological_target": "PKAC-beta (Homo sapiens (Human), UniProt P22694)", "test": "Kinase binding screen", "conditions": "read-out: Percent Control at 100 nM Compound Concentration"}, "CSNK1G2": {"biological_target": "CSNK1G2 (Homo sapiens (Human), UniProt P78368)", "sequence (P78368 whole entry)": "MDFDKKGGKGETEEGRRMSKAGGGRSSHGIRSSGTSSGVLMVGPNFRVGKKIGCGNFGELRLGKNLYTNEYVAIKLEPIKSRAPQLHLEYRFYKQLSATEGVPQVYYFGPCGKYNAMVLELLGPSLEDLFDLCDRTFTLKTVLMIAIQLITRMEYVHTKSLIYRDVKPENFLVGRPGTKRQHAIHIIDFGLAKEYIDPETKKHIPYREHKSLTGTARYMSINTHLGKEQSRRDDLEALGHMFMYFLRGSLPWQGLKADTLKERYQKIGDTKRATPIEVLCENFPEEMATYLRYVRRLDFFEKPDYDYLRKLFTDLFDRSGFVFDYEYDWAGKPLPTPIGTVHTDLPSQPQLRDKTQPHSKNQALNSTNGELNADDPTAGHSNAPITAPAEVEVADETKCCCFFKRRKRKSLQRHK", "test": "Kinase binding screen", "conditions": "read-out: Percent Control at 100 nM Compound Concentration"}, "U937 cells": {"test_system": "U937 cells", "test": "U937 TNF/zVAD Cytotoxicity Cell Assay", "type": "cell-based", "conditions": "Homo sapiens, U-937; TNFα 10 ng/mL + Z-VAD FMK 20 μM, 16-20 hours; read-out: U937 TNF/zVAD Induced Cytotoxicity IC50", "method": "Compounds were tested for their ability to prevent TNF induced necroptosis in U937 cells. Treatment with TNF and the caspase inhibitor zVAD-FMK results in the activation and phosphorylation of RIPK1 and subsequent phosphorylation of RIPK3 and MLKL (Mixed Lineage Kinase Domain Like Pseudokinase), leading to induction of necroptotic cell death that is measured as a reduction in cell viability. Similar U937 assay protocols have been previously described; see, e.g., Harris et al., ACS Med. Chem. Letters (2013) 4:1238-1243 and Supplementary Information.\nTest compounds were solvated in dimethyl sulfoxide (DMSO) and 3-fold serially diluted from 10 uM to 0.0005 uM with technical duplicates into an empty 384 well plate. U937 cells were resuspended at a concentration of 500,000 cells/mL in fresh RPMI (Roswell Park Memorial Institute) 1640 growth medium containing 10% heat inactivated fetal bovine serum (FB1S) and seeded into a 384 well plate containing compounds and incubated for 1 hour at 37° C. Following incubation, the cells were challenged with TNFα (final concentration of 10 ng/mL) and Z-VAD FMK (N-Benzyloxycarbonyl-Val-Ala-Asp(O-Me) fluoromethyl ketone; final concentration of 20 μM) for 16-20 hours at 37° C. Following the incubation with TNFα/Z-VAD, cells were lysed with Cell Titer-Glo and incubated for 5-10 minutes. The plate was then read on an Envision plate reader. Data was normalized and analyzed with Studies from Dotmatics."}}, "note": "Like-named read-outs stand apart in the source and are kept apart here."}
{"smiles": "CN(C[C@H](Cc1ccccc1)OP(=O)(O)O)C(=O)c1cncc(C#Cc2cnn(C(F)F)c2)c1", "note": "[Example 19, (S)-1-(5-((1-(difluoromethyl)-1H-pyrazol-4-yl)ethynyl)-N-methylnicotinamido)-3-phenylpropan-2-yl dihydrogen phosphate]", "values": [{"measurement": "remaining activity at 0.1 µM", "setting": "MAPKAPK2", "result": 100, "unit": "%"}, {"measurement": "remaining activity at 0.1 µM", "setting": "PIP5K1C", "result": 85, "unit": "%"}, {"measurement": "remaining activity at 0.1 µM", "setting": "NEK10", "result": 100, "unit": "%"}, {"measurement": "remaining activity at 0.1 µM", "setting": "YANK1", "result": 100, "unit": "%"}, {"measurement": "remaining activity at 0.1 µM", "setting": "TSSK3", "result": 100, "unit": "%"}, {"measurement": "remaining activity at 0.1 µM", "setting": "EGFR(T790M)", "result": 100, "unit": "%"}, {"measurement": "remaining activity at 0.1 µM", "setting": "PIKFYVE", "result": 57, "unit": "%"}, {"measurement": "remaining activity at 0.1 µM", "setting": "AURKB", "result": 90, "unit": "%"}, {"measurement": "remaining activity at 0.1 µM", "setting": "FGFR3", "result": 100, "unit": "%"}, {"measurement": "remaining activity at 0.1 µM", "setting": "[1]", "result": 97, "unit": "%"}, {"measurement": "remaining activity at 0.1 µM", "setting": "MEK2", "result": 98, "unit": "%"}, {"measurement": "remaining activity at 0.1 µM", "setting": "PRKCI", "result": 92, "unit": "%"}, {"measurement": "remaining activity at 0.1 µM", "setting": "p38-gamma", "result": 88, "unit": "%"}, {"measurement": "remaining activity at 0.1 µM", "setting": "LIMK1", "result": 100, "unit": "%"}, {"measurement": "remaining activity at 0.1 µM", "setting": "CTK", "result": 90, "unit": "%"}, {"measurement": "remaining activity at 0.1 µM", "setting": "PRKD2", "result": 100, "unit": "%"}, {"measurement": "remaining activity at 0.1 µM", "setting": "AMPK-alpha1", "result": 100, "unit": "%"}, {"measurement": "remaining activity at 0.1 µM", "setting": "TRKC", "result": 68, "unit": "%"}, {"measurement": "remaining activity at 0.1 µM", "setting": "ADCK4", "result": 100, "unit": "%"}, {"measurement": "remaining activity at 0.1 µM", "setting": "PKAC-beta", "result": 100, "unit": "%"}, {"measurement": "remaining activity at 0.1 µM", "setting": "CSNK1G2", "result": 95, "unit": "%"}]}
{"smiles": "CN(C[C@@H](O)Cc1ccccc1)C(=O)c1cncc(C#Cc2cnn(C(F)F)c2)c1", "note": "[Example 2, (S)-5-((1-(difluoromethyl)-1H-pyrazol-4-yl)ethynyl)-N-(2-hydroxy-3-phenylpropyl)-N-methylnicotinamide]", "values": [{"measurement": "remaining activity at 0.1 µM", "setting": "MAPKAPK2; MAPKAPK2", "result": 100, "unit": "%"}, {"measurement": "remaining activity at 0.1 µM", "setting": "PIP5K1C; PIP5K1C", "result": 100, "unit": "%"}, {"measurement": "remaining activity at 0.1 µM", "setting": "NEK10; NEK10", "result": 91, "unit": "%"}, {"measurement": "remaining activity at 0.1 µM", "setting": "YANK1; YANK1", "result": 100, "unit": "%"}, {"measurement": "remaining activity at 0.1 µM", "setting": "TSSK3; TSSK3", "result": 82, "unit": "%"}, {"measurement": "remaining activity at 0.1 µM", "setting": "EGFR(T790M); EGFR(T790M)", "result": 100, "unit": "%"}, {"measurement": "remaining activity at 0.1 µM", "setting": "PIKFYVE; PIKFYVE", "result": 57, "unit": "%"}, {"measurement": "remaining activity at 0.1 µM", "setting": "AURKB; AURKB", "result": 100, "unit": "%"}, {"measurement": "remaining activity at 0.1 µM", "setting": "FGFR3; FGFR3", "result": 100, "unit": "%"}, {"measurement": "remaining activity at 0.1 µM", "setting": "[1]; EGFR(L747-S752del, P753S)", "result": 100, "unit": "%"}, {"measurement": "remaining activity at 0.1 µM", "setting": "MEK2; MEK2", "result": 99, "unit": "%"}, {"measurement": "remaining activity at 0.1 µM", "setting": "PRKCI; PRKCI", "result": 96, "unit": "%"}, {"measurement": "remaining activity at 0.1 µM", "setting": "p38-gamma; p38-gamma", "result": 100, "unit": "%"}, {"measurement": "remaining activity at 0.1 µM", "setting": "LIMK1; LIMK1", "result": 100, "unit": "%"}, {"measurement": "remaining activity at 0.1 µM", "setting": "CTK; CTK", "result": 100, "unit": "%"}, {"measurement": "remaining activity at 0.1 µM", "setting": "PRKD2; PRKD2", "result": 79, "unit": "%"}, {"measurement": "remaining activity at 0.1 µM", "setting": "AMPK-alpha1; AMPK-alpha1", "result": 100, "unit": "%"}, {"measurement": "remaining activity at 0.1 µM", "setting": "TRKC; TRKC", "result": 100, "unit": "%"}, {"measurement": "remaining activity at 0.1 µM", "setting": "ADCK4; ADCK4", "result": 100, "unit": "%"}, {"measurement": "remaining activity at 0.1 µM", "setting": "PKAC-beta; PKAC-beta", "result": 92, "unit": "%"}, {"measurement": "IC50", "setting": "U937 cells", "result": 11, "unit": "nM"}, {"measurement": "remaining activity at 0.1 µM", "setting": "CSNK1G2; CSNK1G2", "result": 100, "unit": "%"}]}
